Data reported in patent US20020137929A1, “1 - (3-heterocyclylphenyl) isothiourea, -isourea, -guanidine and -amidine herbicidal agents” (Intellectual Property Department, BASF Aktiengesellschaft, priority 1998, published 2002).

Columns and labels:
GALAP (Galium) = assay: Postemergence herbicidal evaluation; format: in vivo, Galium aparine; conditions: postemergence
Summary of the method: (§1)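 Visual 0-9 injury score (stand, vigor, malformation, size, chlorosis, appearance vs untreated) taken four to five weeks post-spray, averaged across repeat tests. Test plants about two weeks old; foliar spray of acetone/water (1:1) with 0.5% surfactant delivering ~0.0156-0.500 kg active/ha.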

[1] = tested on: IPOHE (Morningglory, Ivyleaf); assay: Postemergence herbicidal evaluation; format: in vivo, Ipomoea hederacea; conditions: postemergence
Summary of the method: as §1

SETVI (Foxtail, Green) [2] = assay: Postemergence herbicidal evaluation; format: in vivo, Setaria viridis; conditions: postemergence
Summary of the method: as §1

[3] = tested on: TRZAWR (Wheat, Winter, cv Riband); assay: Postemergence herbicidal evaluation; format: in vivo, Triticum aestivum; conditions: postemergence
Summary of the method: as §1

ABUTH (Velvetleaf) = assay: Preemergence herbicidal evaluation; format: in vivo, Abutilon theophrasti; conditions: rated 4-5 weeks after treatment
Summary of the method: (§2)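 Herbicidal effect scored visually, 0-9, at 4 to 5 weeks against a control; compound applied preemergence by aqueous acetone spray to seeded soil at about 0.0156 to 0.500 kg/ha.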

[4] = tested on: IPOHE (Morningglory, Ivyleaf); assay: Preemergence herbicidal evaluation; format: in vivo, Ipomoea hederacea; conditions: rated 4-5 weeks after treatment
Summary of the method: as §2

ECHCG (Barnyardgrass) = assay: Preemergence herbicidal evaluation; format: in vivo, Echinochloa crus-galli; conditions: rated 4-5 weeks after treatment
Summary of the method: as §2

SETVI (Foxtail, Green) [5] = assay: Preemergence herbicidal evaluation; format: in vivo, Setaria viridis; conditions: rated 4-5 weeks after treatment
Summary of the method: as §2

ZEAMX (Corn, Field) = assay: Preemergence herbicidal evaluation; format: in vivo, Zea mays; conditions: rated 4-5 weeks after treatment
Summary of the method: as §2

[6] = tested on: ECHORC (Watergrass (Calif.)); assay: Preemergence weed control under flooded paddy conditions; format: in vivo, Echinochloa oryzoides; conditions: rated 3-4 weeks after treatment
Summary of the method: (§3)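 Ratings on a 0-9 visual scale cover stand, vigor, malformation, size, chlorosis and overall appearance relative to a control, taken three to four weeks post-treatment. Application was into flood water over freshly sown silt loam at roughly 0.0313 to 0.500 kg/ha.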

CYPIR (Rice Flatsedge) = assay: as above; format: in vivo, Cyperus iria; conditions: rated 3-4 weeks after treatment
Summary of the method: as §3

MOOVA (Monochoria) = assay: as above; format: in vivo, Monochoria vaginalis; conditions: rated 3-4 weeks after treatment
Summary of the method: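 Values are visual 0-9 scores against a control for a preemergence application into paddy flood water at about 0.0313 to 0.500 kg/ha. Greenhouse duration was three to four weeks.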

COC(=O)COC(=O)CN1C(=O)CSC1=Nc1cc(-n2c(=O)cc(C(F)(F)F)n(C)c2=O)c(F)cc1Cl [Compound 108, 2-{{2-Chloro-5-[3,6-dihydro-3-methyl-2,6-dioxo-4-(trifluoromethyl)-1(2H)-pyrimidinyl]-4-fluorophenyl}imino}-4-oxo-3-thiazolidineacetic acid, ester with methyl glycolate]
Herbicidal rating GALAP (GALAP (Galium); rate 0.0158 kg/ha): 1.0
Herbicidal rating GALAP (GALAP (Galium); rate 0.0315 kg/ha): 1.0
Herbicidal rating GALAP (GALAP (Galium); rate 0.0630 kg/ha): 3.0
Herbicidal rating IPOHE ([1]; rate 0.0158 kg/ha): 9.0
Herbicidal rating IPOHE ([1]; rate 0.0315 kg/ha): 9.0
Herbicidal rating IPOHE ([1]; rate 0.0630 kg/ha): 9.0
Herbicidal rating SETVI (SETVI (Foxtail, Green) [2]; rate 0.0158 kg/ha): 4.0
Herbicidal rating SETVI (SETVI (Foxtail, Green) [2]; rate 0.0315 kg/ha): 6.0
Herbicidal rating SETVI (SETVI (Foxtail, Green) [2]; rate 0.0630 kg/ha): 7.0
Herbicidal rating TRZAWR ([3]; rate 0.0158 kg/ha): 3.0
Herbicidal rating TRZAWR ([3]; rate 0.0315 kg/ha): 3.5
Herbicidal rating TRZAWR ([3]; rate 0.0630 kg/ha): 4.5
Preemergence herbicidal rating ABUTH (ABUTH (Velvetleaf); rate 0.0156 kg/ha): 0.0
Preemergence herbicidal rating ABUTH (ABUTH (Velvetleaf); rate 0.0313 kg/ha): 0.0
Preemergence herbicidal rating ABUTH (ABUTH (Velvetleaf); rate 0.0625 kg/ha): 4.0
Preemergence herbicidal rating ABUTH (ABUTH (Velvetleaf); rate 0.1250 kg/ha): 8.0
Preemergence herbicidal rating ABUTH (ABUTH (Velvetleaf); rate 0.2500 kg/ha): 9.0
Preemergence herbicidal rating IPOHE ([4]; rate 0.0156 kg/ha): 0.0
Preemergence herbicidal rating IPOHE ([4]; rate 0.0313 kg/ha): 0.0
Preemergence herbicidal rating IPOHE ([4]; rate 0.0625 kg/ha): 0.0
Preemergence herbicidal rating IPOHE ([4]; rate 0.1250 kg/ha): 4.0
Preemergence herbicidal rating IPOHE ([4]; rate 0.2500 kg/ha): 9.0
Preemergence herbicidal rating ECHCG (ECHCG (Barnyardgrass); rate 0.0156 kg/ha): 0.0
Preemergence herbicidal rating ECHCG (ECHCG (Barnyardgrass); rate 0.0313 kg/ha): 0.0
Preemergence herbicidal rating ECHCG (ECHCG (Barnyardgrass); rate 0.0625 kg/ha): 0.0
Preemergence herbicidal rating ECHCG (ECHCG (Barnyardgrass); rate 0.1250 kg/ha): 0.0
Preemergence herbicidal rating ECHCG (ECHCG (Barnyardgrass); rate 0.2500 kg/ha): 1.0
Preemergence herbicidal rating SETVI (SETVI (Foxtail, Green) [5]; rate 0.0156 kg/ha): 0.0
Preemergence herbicidal rating SETVI (SETVI (Foxtail, Green) [5]; rate 0.0313 kg/ha): 0.0
Preemergence herbicidal rating SETVI (SETVI (Foxtail, Green) [5]; rate 0.0625 kg/ha): 1.0
Preemergence herbicidal rating SETVI (SETVI (Foxtail, Green) [5]; rate 0.1250 kg/ha): 7.0
Preemergence herbicidal rating SETVI (SETVI (Foxtail, Green) [5]; rate 0.2500 kg/ha): 9.0
Preemergence herbicidal rating ZEAMX (ZEAMX (Corn, Field); rate 0.0156 kg/ha): 0.0
Preemergence herbicidal rating ZEAMX (ZEAMX (Corn, Field); rate 0.0313 kg/ha): 0.0
Preemergence herbicidal rating ZEAMX (ZEAMX (Corn, Field); rate 0.0625 kg/ha): 0.0
Preemergence herbicidal rating ZEAMX (ZEAMX (Corn, Field); rate 0.1250 kg/ha): 1.0
Preemergence herbicidal rating ZEAMX (ZEAMX (Corn, Field); rate 0.2500 kg/ha): 2.0
ECHORC herbicidal effect rating ([6]; 0.0313 kg/ha): 0.0
ECHORC herbicidal effect rating ([6]; 0.0625 kg/ha): 0.0
ECHORC herbicidal effect rating ([6]; 0.1250 kg/ha): 0.0
ECHORC herbicidal effect rating ([6]; 0.2500 kg/ha): 0.0
CYPIR herbicidal effect rating (CYPIR (Rice Flatsedge); 0.0313 kg/ha): 4.0
CYPIR herbicidal effect rating (CYPIR (Rice Flatsedge); 0.0625 kg/ha): 6.0
CYPIR herbicidal effect rating (CYPIR (Rice Flatsedge); 0.1250 kg/ha): 7.0
CYPIR herbicidal effect rating (CYPIR (Rice Flatsedge); 0.2500 kg/ha): 7.0
MOOVA herbicidal effect rating (MOOVA (Monochoria); 0.0313 kg/ha): 9.0
MOOVA herbicidal effect rating (MOOVA (Monochoria); 0.0625 kg/ha): 9.0
MOOVA herbicidal effect rating (MOOVA (Monochoria); 0.1250 kg/ha): 9.0
MOOVA herbicidal effect rating (MOOVA (Monochoria); 0.2500 kg/ha): 9.0
